Converted amounts (≈) assume the structure as drawn. The source made the active and inactive calls. The rule behind the calls is not given here.
Columns and labels:
Assay type in all cases: functional
[1] = system: Bacillus subtilis; test: Antibacterial activity against Bacillus subtilis after 24 hr by agar well diffusion method
[2] = system: Aspergillus niger; test: Antifungal activity against Aspergillus niger at 2 to 64 ug/ml after 7 days by agar well diffusion method
[3] = system: Saccharomyces cerevisiae; test: Antifungal activity against Saccharomyces cerevisiae at 2 to 64 ug/ml after 7 days by agar well diffusion method
[4] = system: Candida albicans; test: Antifungal activity against Candida albicans after 7 days by agar well diffusion method
[5] = system: Escherichia coli; test: Antibacterial activity against Escherichia coli at 2 to 64 ug/ml after 24 hr by agar well diffusion method
[6] = system: Aspergillus niger; test: Antifungal activity against Aspergillus niger after 7 days by agar well diffusion method
[7] = system: Klebsiella aerogenes; test: Antibacterial activity against Enterobacter aerogenes at 2 to 64 ug/ml after 24 hr by agar well diffusion method
[8] = system: Bacillus subtilis; test: Antibacterial activity against Bacillus subtilis at 2 to 64 ug/ml after 24 hr by agar well diffusion method
[9] = system: Klebsiella aerogenes; test: Antibacterial activity against Enterobacter aerogenes after 24 hr by agar well diffusion method
[10] = system: Staphylococcus aureus; test: Antibacterial activity against Staphylococcus aureus at 2 to 64 ug/ml after 24 hr by agar well diffusion method
[11] = system: Candida albicans; test: Antifungal activity against Candida albicans at 2 to 64 ug/ml after 7 days by agar well diffusion method
[12] = system: Saccharomyces cerevisiae; test: Antifungal activity against Saccharomyces cerevisiae after 7 days by agar well diffusion method
[13] = system: Staphylococcus aureus; test: Antibacterial activity against Staphylococcus aureus after 24 hr by agar well diffusion method
[14] = system: Escherichia coli; test: Antibacterial activity against Escherichia coli after 24 hr by agar well diffusion method

Row | Compound | MIC [1] | diameter of the inhibition zone (DIZ) [3] [mm] | MIC ([4]; 168 h) [µg/mL] | diameter of the inhibition zone (DIZ) [5] [mm] | diameter of the inhibition zone (DIZ) [7] [mm] | diameter of the inhibition zone (DIZ) [8] [mm] | MIC [9] | Activity [10] | diameter of the inhibition zone (DIZ) [11] [mm] | MIC ([12]; 168 h) [µg/mL] | MIC [13] | MIC [14] | Activity [5] | Activity [8] | Activity [2] | MIC [6] | Activity [3] | MIC [12] | other results
1 | Nc1nn(-c2ccc([N+](=O)[O-])cc2[N+](=O)[O-])c(N)c1/N=N/c1ccc(F)cc1 | 4 µg/mL (≈ 10.4 µM) | 12 | 2 (≈ 5.18 µM) | 13 | 13 | 10 | 2 µg/mL (≈ 5.18 µM) | inactive | 11 | 8 (≈ 20.7 µM) | inactive | 2 µg/mL (≈ 5.18 µM) |  |  |  |  |  |  | diameter of the inhibition zone (DIZ) [2]: 10 mm; MIC ([6]; 168 h): 2 µg/mL (≈ 5.18 µM)
2 | OC(Cn1cncn1)(Cn1cncn1)c1ccc(F)cc1F [FLUCONAZOLE] | inactive | 12 | 2 (≈ 6.53 µM) |  |  |  | inactive | inactive | 10 | 4 (≈ 13.1 µM) | inactive | inactive | inactive | inactive |  |  |  |  | diameter of the inhibition zone (DIZ) [2]: 13 mm; MIC ([6]; 168 h): 2 µg/mL (≈ 6.53 µM); Activity [7]: inactive
3 | Cc1cc(C)nc(-n2nc(N)c(/N=N/c3ccc(F)cc3)c2N)n1 | inactive | 10 | 2 (≈ 6.13 µM) |  | 9 |  | 8 µg/mL (≈ 24.5 µM) |  | 9 | 8 (≈ 24.5 µM) | 16 µg/mL (≈ 49 µM) | inactive | inactive | inactive | inactive | inactive |  |  | diameter of the inhibition zone (DIZ) [10]: 4.5 mm
4 | Nc1nn(-c2nc3ccc(Cl)cc3s2)c(N)c1/N=N/c1ccc(F)cc1 | inactive |  | 2 (≈ 5.16 µM) |  | 10 |  | 2 µg/mL (≈ 5.16 µM) | inactive | 12 |  | inactive | inactive | inactive | inactive | inactive | inactive | inactive | inactive | 
5 | C=CC1=C(C(=O)O)N2C(=O)[C@@H](NC(=O)/C(=N\OCC(=O)O)c3csc(N)n3)[C@H]2SC1 [CEFIXIME] | 4 µg/mL (≈ 8.82 µM) |  |  | 14 | 15 | 2.8 | 2 µg/mL (≈ 4.41 µM) |  |  |  | 2 µg/mL (≈ 4.41 µM) | 2 µg/mL (≈ 4.41 µM) |  |  | inactive | inactive | inactive | inactive | MIC [4]: inactive; diameter of the inhibition zone (DIZ) [10]: 2.9 mm; Activity [11]: inactive
6 | Nc1nn(-c2ccccc2)c(N)c1/N=N/c1ccc(F)cc1 | 8 µg/mL (≈ 27 µM) | 12 | 2 (≈ 6.75 µM) | 12 | 12 | 10 | 32 µg/mL (≈ 108 µM) | inactive | 7 | 4 (≈ 13.5 µM) | inactive | 2 µg/mL (≈ 6.75 µM) |  |  | inactive | inactive |  |  | 
7 | Cc1ccc2nc(-n3nc(N)c(/N=N/c4ccc(F)cc4)c3N)sc2c1 | inactive |  | 2 (≈ 5.44 µM) |  | 10.5 |  | 2 µg/mL (≈ 5.44 µM) | inactive | 11 |  | inactive | inactive | inactive | inactive | inactive | inactive | inactive | inactive | 
8 | Nc1nn(-c2nc3ccc(F)cc3s2)c(N)c1/N=N/c1ccc(F)cc1 | 4 µg/mL (≈ 10.8 µM) |  |  |  | 11 | 12 | 4 µg/mL (≈ 10.8 µM) | inactive |  |  | inactive | inactive | inactive |  |  |  | inactive | inactive | diameter of the inhibition zone (DIZ) [2]: 14 mm; MIC [4]: inactive; MIC ([6]; 168 h): 2 µg/mL (≈ 5.39 µM); Activity [11]: inactive
9 | Nc1nn(-c2nc3ccccc3s2)c(N)c1/N=N/c1ccc(F)cc1 | 6 µg/mL (≈ 17 µM) | 9 | 2 (≈ 5.66 µM) | 12 | 14 | 9 | 2 µg/mL (≈ 5.66 µM) | inactive | 12 | 6 (≈ 17 µM) | inactive | 8 µg/mL (≈ 22.6 µM) |  |  | inactive | inactive |  |  | 
10 | Cc1cc(-n2nc(N)c(/N=N/c3ccc(F)cc3)c2N)nc2ccccc12 | 4 µg/mL (≈ 11.1 µM) |  | 64 (≈ 177 µM) | 15 | 15 | 12 | 8 µg/mL (≈ 22.1 µM) |  | 10 |  | 2 µg/mL (≈ 5.53 µM) | 2 µg/mL (≈ 5.53 µM) |  |  | inactive | inactive | inactive | inactive | diameter of the inhibition zone (DIZ) [10]: 2.6 mm
11 | Nc1nn(-c2ccc(Cl)cc2)c(N)c1/N=N/c1ccc(F)cc1 | inactive |  | 2 (≈ 6.05 µM) |  | 12 |  | 2 µg/mL (≈ 6.05 µM) | inactive | 9 |  | inactive | inactive | inactive | inactive | inactive | inactive | inactive | inactive | 
